Data on one molecule can be found in US9173877B1, “Compositions and methods for the treatment of local pain” (CELLIX BIO PRIVATE LIMITED, priority 2014, dated 2015).

This series in a line: Pharmacokinetic evaluation of Bupivacaine (BU) and Formula I (1-1) in Sprague-Dawley rats (blood and brain concentrations). It counts as in vivo. Conditions: rat, male Sprague-Dawley rats, intravenous, 3 mg/kg, n=5. The procedure: Male specific pathogen-free Sprague-Dawley rats weighing 300-350 g were obtained from the Laboratory. The animals had free access to food and water. The rat was anaesthetized with urethane 1.0 g/mL and chloralose 0.1 g/mL (1 mL/kg, i.p.) before surgery. The femoral vein was cannulated for further drug administration, and the rat's body temperature was maintained by heating pad during the experiment. All rats remained anaesthetized during the experimental period over which the Formula I (1-1) and BU concentrations in blood, brain and bile were monitored, and they were euthanized by overdose CO2 under the anaesthetic after the experimental endpoint.
Bupivacaine (3 mg/mL) was prepared in 0.9%(w/v) sodium chloride. Formula I (1-1) equivalent of BU 3 mg/mL. Rats were divided into the following groups (n=5 for each group) and received drugs intravenously: group 1 treated with (20 mg/kg) 10 min before BU (3 mg/kg) administration, group 2 treated with Formula I (1-1) (3 mg/kg).
The chromatographic system consisted of a PM-80 chromatographic pump (BAS, West Lafayette, Ind., USA), an off-line injector (CMA/140, Stockholm, Sweden) equipped with a […] sample loop injector (Rheodynemodel7125) and a UV-Vis detector (Soma, Tokyo, Japan) that operated at room temperature (25±2° C.). Separation was achieved on a LiChrosphere60RP-select B column (4.6 mm×250 mm, […], Merck). The mobile phase for plasma, brain homogenate, blood dialysate and brain dialysate was comprised of 10 mM potassium dihydrogenphosphate-acetonitrile-triethylamine (67:33:0.01), adjusted to pH4.3 with H3PO4. The mobile phase for bile dialysate consisted of 10 mM potassium dihydrogen phosphate-acetonitrile-triethylamine (60:40:0.01), adjusted to pH6.0 with H3PO4. The flow rate was set at 1.0 mL/min for both mobile phases.

In the case of `CCCCN1CCCCC1C(=O)Nc1c(C)cccc1C` (stereo not shown) [BU, Bupivacaine], for the setting “Blood”, the AUC – broadly, the area under the concentration-time curve, a measure of exposure – was 1370 ng·h/mL and the half-life (usually the time in which the quantity being followed falls by half) turned out to be 4 ± 2 min. Also, where the note is “Brain”, the AUC is 250 ng·h/mL and the concentration peaked (Cmax) at 560 ± 130 ng/mL.
